Patent publication US20250205221A1, “MUSCLE RELAXANT” (priority 2022, published 2025)

Assays:
[1] = system: twitch response of the gastrocnemius muscle; experiment: Evaluation of neuromuscular blocking effect (time to complete recovery of twitch response); format: in vivo, Male Sprague Dawley rats; settings: for time until the muscle contraction (twitch response) was completely recovered: rats under isoflurane, dose inducing 95-99.9% neuromuscular block (ED95-99.9) via right jugular vein, sciatic nerve stimulation 0.1 Hz; for duration of action relative to succinylcholine: rats, doses inducing 95-99.9% neuromuscular block
Experimental: Male Sprague Dawley rats (about 300 g body weight) were used in the experiment. Anesthesia was first induced by 4 to 5% isoflurane inhalation and then maintained by 2 to 3% isoflurane inhalation. A warming system was used to keep the body temperature at 36 to 37° C. Lidocaine was infiltrated into the incision site. Tracheostomy was performed and a 16G catheter was inserted to secure the airway. The animals were ventilated by isoflurane and oxygen inhalation using a rodent ventilator at a tidal volume of 10 mL/kg and a respiratory rate of 70/min. A […] catheter was indwelled in the right jugular vein for drug administration. A small slide electrode was attached to the sciatic nerve, and supramaximal stimulation was applied at a frequency of 0.1 Hz and a pulse width of 0.2 ms using an electrostimulator. Using a force transducer, the twitch response of the gastrocnemius muscle was captured, amplified, and recorded. After the amplitude of the twitch response stabilized, a dose of succinylcholine or the JH-cpd series (JH013, JH014) inducing 95-99.9% neuromuscular block was administered, and the time until the muscle contraction (twitch response) was completely recovered was measured.

[2] = reported in Non-Patent Document 1; cited from earlier work

SMILES	time until the muscle contraction (twitch response) was completely recovered [1] [min]	duration of action relative to succinylcholine [1]	duration of action at clinical doses [2]
COc1ccc(CC2c3cc(OC)c(OC)cc3CC[N+]2(C)CCCOC(=O)/C=C/C(=O)OCC[N+](C)(C)C)cc1OC (stereo not drawn) [JH013]	5.5	approximately half	–
COc1ccc(CC2c3cc(OC)c(OC)cc3CC[N+]2(C)CCOC(=O)/C=C/C(=O)OCC[N+](C)(C)C)cc1OC (stereo not drawn) [JH014]	7.5	approximately two-thirds	–
C[N+](C)(C)CCOC(=O)CCC(=O)OCC[N+](C)(C)C [succinylcholine, reference compound]	11	–	approximately 10 minutes
